Test results taken from ChEMBL document CHEMBL1255537, “Design, synthesis and docking studies on phenoxy-3-piperazin-1-yl-propan-2-ol derivatives as protein tyrosine phosphatase 1B inhibitors” (2010).

Columns and labels:
[1] = molecular target: T1, Tyrosine-protein phosphatase non-receptor type 1 (Homo sapiens) (UniProt P18031); experiment: Inhibition of PTP1B assessed as p-nitrophenolate ions release at 100 uM
T1 sequence (whole entry): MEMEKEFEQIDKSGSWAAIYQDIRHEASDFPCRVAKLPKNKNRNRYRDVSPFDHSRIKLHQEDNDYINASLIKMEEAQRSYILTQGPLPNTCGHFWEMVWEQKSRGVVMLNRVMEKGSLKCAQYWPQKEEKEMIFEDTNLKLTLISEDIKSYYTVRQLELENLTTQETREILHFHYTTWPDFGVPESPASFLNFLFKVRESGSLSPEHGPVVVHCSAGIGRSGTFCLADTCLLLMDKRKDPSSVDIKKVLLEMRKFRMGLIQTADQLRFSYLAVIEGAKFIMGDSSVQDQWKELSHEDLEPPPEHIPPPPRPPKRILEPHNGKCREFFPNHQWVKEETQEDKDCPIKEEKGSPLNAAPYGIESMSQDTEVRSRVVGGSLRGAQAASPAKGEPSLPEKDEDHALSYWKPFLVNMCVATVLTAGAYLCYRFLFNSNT

Rattus norvegicus [2] = experiment: Antihyperglycemic activity in rat sucrose loaded model assessed as reduction of blood glucose level at 100 mg/kg, po; type: functional
Rattus norvegicus [3] = experiment: Antihyperglycemic activity in rat streptozotocin-induced diabetic model assessed as reduction of blood glucose level at 100 mg/kg, po after 5 hrs; type: functional
Rattus norvegicus [4] = experiment: Antihyperglycemic activity in rat streptozotocin-induced diabetic model assessed as reduction of blood glucose level at 100 mg/kg, po after 24 hrs; type: functional

| SMILES | inhibition [1] [%] | inhibition in vivo at 100 mg/kg (Rattus norvegicus [2]) [%] | inhibition in vivo at 100 mg/kg (Rattus norvegicus [3]) [%] | inhibition in vivo at 100 mg/kg (Rattus norvegicus [4]) [%] |
| --- | --- | --- | --- | --- |
| OC(COc1ccc(Cl)cc1)CN1CCN(C/C=C/c2ccccc2)CC1 (stereo unspecified) | 7.63 | 14.6 |  |  |
| CN1CCN(CC(O)COc2ccc(Cl)cc2)CC1 (stereo unspecified) | 2.4 | 2.61 |  |  |
| COc1ccc(N2CCN(CC(O)COc3ccc(Cl)cc3)CC2)cc1 (stereo unspecified) | 9.21 | 4.6 |  |  |
| O=[N+]([O-])c1ccc(N2CCN(CC(O)COc3ccc(F)cc3)CC2)cc1 (stereo unspecified) | 24 | 40.2 | 14.4 | 10.8 |
| N#Cc1ccc(OCC(O)CN2CCN(Cc3ccc4c(c3)OCO4)CC2)cc1 (stereo unspecified) | 0.5 | 14 |  |  |
| Cc1ccc(N2CCN(CC(O)COc3ccc(C#N)cc3)CC2C)cc1 (stereo unspecified) | 31.6 | 40.3 | 26.8 | 32 |
| OC(COc1ccc(Cl)cc1)CN1CCN(c2ccc(Cl)c(Cl)c2)CC1 (stereo unspecified) | 24.6 | 3.52 |  |  |
| CN(C)C(=N)NC(=N)N [METFORMIN] |  | 42 | 28 | 29.8 |
| O=[N+]([O-])c1ccc(N2CCN(CC(O)COc3ccc(Cl)cc3)CC2)cc1 (stereo unspecified) | 35.9 | 24.8 | 18.9 | 13.6 |

Now from value to molecule, other results behind:

| inhibition [1] [%] | SMILES | inhibition in vivo at 100 mg/kg (Rattus norvegicus [2]) [%] | inhibition in vivo at 100 mg/kg (Rattus norvegicus [3]) [%] | inhibition in vivo at 100 mg/kg (Rattus norvegicus [4]) [%] |
| --- | --- | --- | --- | --- |
| 5.1 | N#Cc1ccc(OCC(O)CN2CCN(Cc3ccccc3)CC2)cc1 (stereo unspecified) | 39.6 | 25.3 | 14.7 |
| 2.6 | COc1ccccc1N1CCN(CC(O)COc2ccc(C#N)cc2)CC1 (stereo unspecified) | 33.5 |  |  |
| 3.6 | N#Cc1ccc(OCC(O)CN2CCN(c3ccc(F)cc3)CC2)cc1 (stereo unspecified) | 38.6 |  |  |
| 1.8 | N#Cc1ccc(OCC(O)CN2CCN(c3ccccn3)CC2)cc1 (stereo unspecified) | 39.6 |  |  |
| 1.5 | N#Cc1ccc(OCC(O)CN2CCN(c3cccc(Cl)c3)CC2)cc1 (stereo unspecified) | 16.5 |  |  |
| 4.6 | N#Cc1ccc(OCC(O)CN2CCN(c3ccccc3)CC2)cc1 (stereo unspecified) | 56.7 |  |  |
| 18.8 | N#Cc1ccc(OCC(O)CN2CCN(c3cccc(C(F)(F)F)c3)CC2)cc1 (stereo unspecified) | 49.7 |  |  |
